{"source": "patent US10233198B2", "about": "“Pro-drugs of NSAIAs with very high skin and membranes penetration rates and their new medicinal uses” (Techfields Pharma Co., Ltd., priority 2007, dated 2019)", "key": {"Chinese White rabbits [1]": {"test_system": "Chinese White rabbits", "assay": "Malassezia-induced psoriasis-like lesions", "assay_type": "in vivo", "conditions": "5% aqueous solution applied twice per day; 10 days after the application", "from_the_text": "COX-1 and COX-2 play a very important role in animal immune-responses. NSAIAs inhibite COX-1 and COX-2. The pro-drugs of NSAIAs in this invention may be very useful for treating psoriasis, discoid lupus erythematosus, systemic lupus erythematosus (SLE), and other autoimmune diseases. Heavy suspensions of Malassezia [Rosenberg, E. W., et al., Mycopathologia, 72, 147-154 (1980)] were applied to the shaved skin on the backs of the Chinese white rabbits (n=4×6) twice (at 7 am and 7 pm) per day for 2 weeks, lesions similar to psoriasis resulted."}, "[2]": {"test_system": "human colon cancer cells (LS174J)", "assay": "Anti-tumor activity, human colon cancer xenograft in nude mice, topical", "conditions": "for Weight of nude mice: day 30, about 30 μl of 5% (1.5 mg) topically every 8 hours", "procedure": "In the second anti-tumor experiment, human colon cancer cells (LS174J, 2-3 mm^3 of tumor tissue was used in each mouse) were subcutaneously xenografted into nude mice (BALB). After 7 days, the tumors were growing to the size of 55±10 mm^3 (0.055 ml). Then about 30 μl of 5% (equal to 1.5 mg of the pro-drugs) diethylaminoethyl acetylsalicylate.acetylsalicylic acid salt (P-1, in acetone); 1-piperidinepropyl 2[(2,6-dichlorophenyl)amino]benzene acetate.AcOH (P-2, in water), 1-pyrrolidinepropyl 2-(3-benzoylphenyl) propionate.AcOH (P-3, in water), 4-piperidinemethyl 2-(3-phenoxyphenyl)propionate.AcOH (P-4, in water), 3-piperidinemethyl 2-(ρ-isobutylphenyl) propionate.AcOH (P-5, in water), diethylaminoethyl 1-methyl-5-(4-methylbenzoyl)-1H-pyrrole-2-acetate.AcOH (P-13, in water), 2-(4-morpholinyl)ethyl 2-amino-3-benzoylbenzeneacetateAcOH (P-16, in water), diethylaminoethyl 2-(10,11-dihydro-10-oxodibenzo(b,f)thiepin-2-yl)propionate.AcOH (P-36), diethylaminoethyl 2-[(2,3-dimethylphenypamino]benzoate.AcOH (P-46, in water), diethylaminoethyl 2-[(2,6-dichloro-3-methylphenyl)amino]benzoate.AcOH (P47, in water), N-(2-thiazoyl)-4-N,N-dimethylaminobutyryloxy-2-methyl-2H,1,2-benzothiazine-3-car boxamide 1,1-dioxide.HCl (P-52, in acetone) was topically applied to the human colon cancer cells-implanted area (near the front leg) every 8 hours."}, "[3]": {"test_system": "human breast cancer cells (BCAP-37)", "assay": "Anti-tumor activity, human breast cancer xenograft in nude mice, topical", "conditions": "day 42; 30 μl of 5% (1.5 mg) topically every 8 hours; BCAP-37 xenograft; in g (unit assumed)", "procedure": "For evaluation of anti-tumor activity of the pro-drugs of NSAIAs, human breast cancer cells (BCAP-37, 2-3 mm^3 of tumor tissue was used in each mouse) were subcutaneously xenografted into nude mice (BALE, 12 groups, 7 mice each group). After 14 days, the tumors were growing to the size of 50±10 mm^3 (0.05 ml). Then 30 μl of 5% (equal to 1.5 mg of the pro-drugs) diethylaminoethyl acetylsalicylate.acetylsalicylic acid salt (P-1, in acetone); 1-piperidinepropyl 2[(2,6-dichlorophenyl)amino]benzene acetate.AcOH (P-2, in water), 1-pyrrolidinepropyl 2-(3-benzoylphenyl) propionate.AcOH (P-3, in water), 4-piperidinemethyl 2-(3-phenoxyphenyl)propionate.AcOH (P-4, in water), 3-piperidinemethyl 2-(ρ-isobutylphenyl) propionate.AcOH (P-5, in water), diethylaminoethyl 1-(p-chlorobenzoyl)-5-methoxy-2-methylindole 3-acetate.AcOH (P-11, in water), 2-(4-morpholinyl)ethyl (Z)-5-fluoro-2-methyl-1-[(4-methylsulfinyl) phenylmethylene]-1H-indene-3-acetate.AcOH (P-12, in water), diethylaminoethyl 2-(2,4-dichlorophenoxy)benzeneacetate.AcOH (P-19, in water), diethylaminoethyl 2-(8-methyl-10, 11-dihydro-11-oxodibenz(b,f)oxepin-2-yl)propionate.AcOH (P-37, in water), 1-pyrrolidinepropyl 2-[[(3-(trifluoromethyl)phenyl)amino]benzoate.AcOH (P-48, in water), 4-N,N-dimethylaminobutyryloxy-2-methyl-N-2-pyridinyl-2H,1,2-benzothiazine-3-carb oxamide 1,1-dioxide.HCl (P-51, in acetone) was topically applied to the human breast cancer cells-implanted area (near the front leg) every 8 hours."}, "[4]": {"test_system": "SLAC/GK rats, type 2 diabetes", "assay": "Blood glucose in type 2 diabetic rats, transdermal", "assay_type": "in vivo", "conditions": "no fasting; for Blood glucose, diabetic rats, Baseline: baseline of the treatment group", "from_the_text": "(§1) The pro-drugs in this invention lower blood glucose levels in rat models (SLAC/GK, type 2 diabetes, n=7). 50% acetone solution of diethylaminoethyl acetylsalicylate.acetylsaficylic acid salt (P-1, in acetone); 4-acetamidophenyl salicylyldimethylaminobutyrate.HCl (P-6), diethylaminoethyl 5-(2,4-difluorophenyl) acetylsalicylate.5-(2,4-difluorophenyl) acetylsalicylic acid salt (P-8), diethylaminoethyl salicylsalicylate.AcOH (P-9), diethylaminoethyl salicylate.AcOH (P-10), diethylaminoethyl 5-acetamido-acetylsalicylate (P-58), diethylaminoethyl acetylsalicylsalicylate. acetylsalicylsalicylic acid salt (P-59), diethylaminoethyl acetylsalicylsalicylate. acetylsalicylsalicylsalicylic acid salt (P-60) (equal to of 20 mg/kg of NSAIAs) were administered transdermally to the backs (about 1.5 cm^2) of rats (fur was shaved) once per day (at 8 am) for 5 weeks. The blood glucose levels were measured once every 3 days at 4 pm (no fasting) from the second week to the fifth week. The blood lipid levels were measured at the end of the fifth week."}, "[5]": {"test_system": "SLAC:NOD-IDDM mice, type 1 diabetes", "assay": "Blood glucose in type 1 diabetic mice, transdermal", "assay_type": "in vivo", "conditions": "no fasting; for Blood glucose, type I diabetic mice, Baseline: baseline of the treatment group; for Blood glucose, type I diabetic mice, Average: transdermal, equal to 20 mg/kg of NSAIAs once per day for 7 weeks, fourth to seventh week", "from_the_text": "The pro-drugs in this invention lower blood glucose levels in mouse models (SLAC:NOD-IDDM, type 1 diabetes, n=7). 20% acetone solution of diethylaminoethyl acetylsalicylate.acetylsalicylic acid salt (P-1, in acetone); 4-acetamidophenyl salicylyldimethylaminobutyrate.HCl (P-6), diethylaminoethyl 5-(2,4-difluorophenyl) acetylsalicylate.5-(2,4-difluorophenyl) acetylsalicylic acid salt (P-8), diethylaminoethyl salicylsalicylate.AcOH (P-9), diethylaminoethyl salicylate.AcOH (P-10), diethylaminoethyl 5-acetamido-acetylsalicylate (P-58), diethylaminoethyl acetylsalicylsalicylate. acetylsalicylsalicylic acid salt (P-59), diethylaminoethyl acetylsalicylsalicylate. acetylsalicylsalicylsalicylic acid salt (P-60) (equal to of 20 mg/kg of NSAIAs) were administered transdermally to the backs (about 1 cm^2) of mice (fur was shaved) once per day (at 8 am) for 7 weeks. The blood glucose levels were measured once every 3 days at 3 pm (no fasting) from the fourth week to the seventh week."}, "Chinese White rabbits [6]": {"test_system": "Chinese White rabbits", "assay": "Autologous blood clot pulmonary embolism model, thrombus propagation", "assay_type": "in vivo", "conditions": "15 mg/kg topically on the back; after 2 days", "procedure": "Eighteen Chinese White rabbits weighing between 3.0 and 3.5 kg (aged 6-7 months) were selected and divided into three groups (control, P-1 and […] groups, n=6). One hour before the experiment, thrombi were made by aspirating venous blood (1 ml) into a sterilized bottle to clot. To avoid fragmentation and slow lysis, the autologous blood clots were stabilized in temperature-controlled (70° C.) distilled water for 10 min. After anesthesia, the femoral veins were exposed and distally isolated, and autologous blood clots (0.05 g/kg) were injected through an indwelling catheter (20GA), which had been placed in the femoral vein isolated earlier. 50% acetone solution of diethylaminoethyl acetylsalicylate.acetylsalicylic acid salt (P-1, in acetone, 15 mg/kg) and diethylaminoethyl acetylsalicylsalicylate.acetylsalicylsalicylic acid salt (P-59, 15 mg/kg) were topically applied to the back of the rabbits. After 2 days, rabbits were euthanized with an excessive intravenous injection of sodium amobarbital (60 mg/kg). The lungs and hearts were isolated to observe whether thrombi were present in the pulmonary arteries. The lungs were immersed in 10% formalin for 24 h. Consecutive transverse sections along the obstructed pulmonary arteries were paraffin-embedded and stained with hematoxylin-eosine. […]"}, "[7]": {"test_system": "SLAC/GK rats, type 2 diabetes", "assay": "Blood lipid levels in type 2 diabetic rats, transdermal", "assay_type": "in vivo", "from_the_text": "as §1"}, "normal rats": {"test_system": "normal rats", "assay": "Blood glucose in normal rats, transdermal", "assay_type": "in vivo", "conditions": "no fasting; for Blood glucose, normal rats, Baseline: baseline of the treatment group"}, "[8]": {"assay": "In vivo penetration through skin of intact rats; distribution in plasma and tissues"}, "[9]": {"conditions": "prodrug versus testosterone (TS); cited from earlier work"}, "[10]": {"conditions": "4 hours after 20% P-2 in 1 ml ethanol on about 5 cm^2 of rat back"}}, "data": [{"molecule": "CC(=O)O.CCN(CC)CCOC(=O)Cc1ccc(C(=O)c2ccc(C)cc2)n1C", "note": "[P-13, diethylaminoethyl 1-methyl-5-(4-methylbenzoyl)-1H-pyrrole-2-acetate.AcOH]", "values": [{"measurement": "Psoriasis-like lesions", "setting": "Chinese White rabbits [1]", "result": "the lesions were resolved"}, {"measurement": "Weight of nude mice", "setting": "[2]", "result": "21 ± 2"}]}, {"molecule": "CC(=O)O.CCN(CC)CCOC(=O)Cc1c(C)n(C(=O)c2ccc(Cl)cc2)c2ccc(OC)cc12", "note": "[P-11, diethylaminoethyl 1-(p-chlorobenzoyl)-5-methoxy-2-methylindole 3-acetate.AcOH]", "values": [{"measurement": "Weight of nude mice", "setting": "[3]", "result": "21 ± 2"}]}, {"molecule": "CC(=O)O.O=C(OCCCN1CCCC1)c1ccccc1Nc1cccc(C(F)(F)F)c1", "note": "[P-48]", "values": [{"measurement": "Weight of nude mice", "setting": "[3]", "result": "22 ± 3"}]}, {"molecule": "CC(=O)Oc1ccccc1C(=O)O.CCN(CC)CCOC(=O)c1ccccc1OC(C)=O", "note": "[P-1, diethylaminoethyl acetylsalicylate.acetylsalicylic acid salt]", "values": [{"measurement": "Blood glucose, diabetic rats, Baseline", "setting": "[4]", "result": "16.1 ± 3", "unit": "mmol/L"}, {"measurement": "Blood glucose, type I diabetic mice, Baseline", "setting": "[5]", "result": "26.1 ± 5", "unit": "mmol/L"}, {"measurement": "Blood glucose, type I diabetic mice, Average", "setting": "[5]", "result": "6.5 ± 1", "unit": "mmol/L"}, {"measurement": "Histology of lung tissue and vascular walls after clot injection", "setting": "Chinese White rabbits [6]", "result": "both lung tissue and vascular walls were normal"}, {"measurement": "Triglycerides, Baseline", "setting": "[7]; baseline of the treatment group", "result": "5.9 ± 0.5", "unit": "mmol/L"}, {"measurement": "Blood glucose, normal rats, Baseline", "setting": "normal rats", "result": "6.4 ± 1", "unit": "mmol/L"}, {"measurement": "Blood glucose, normal rats, Average", "setting": "normal rats; transdermal, equal to 20 mg/kg of NSAIAs once per day for 5 weeks, second to fifth week", "result": "6.3 ± 1", "unit": "mmol/L"}]}, {"molecule": "CN(C)CCCC(=O)OC1=C(C(=O)Nc2nccs2)N(C)S(=O)(=O)c2ccccc21.Cl", "note": "[P-52, N-(2-thiazoyl)-4-N,N-dimethylaminobutyryloxy-2-methyl-2H,1,2-benzothiazine-3-car boxamide 1,1-dioxide.HCl]", "values": [{"measurement": "Tumor size", "setting": "[2]; day 30, about 30 μl of 5% (1.5 mg) topically every 8 hours from day 7", "result": "690 ± 250", "unit": "mm^3"}]}, {"molecule": "CC(C(=O)O)c1cccc(C(=O)c2ccccc2)c1", "note": "(stereo not shown) [ketoprofen, reference compound]", "values": [{"measurement": "Drug found in rat tissues or plasma after topical application of the parent drug itself", "setting": "[8]; 4 hours after 20% parent drug in 1 ml ethanol on about 5 cm^2 of rat back, blood, liver, kidney, brain", "result": "None of these drugs was found"}]}, {"molecule": "CC(=O)Oc1ccccc1C(=O)Oc1ccccc1C(=O)O.CCN(CC)CCOC(=O)c1ccccc1OC(=O)c1ccccc1OC(C)=O", "note": "[P-59, diethylaminoethyl acetylsalicylsalicylate. acetylsalicylsalicylic acid salt]", "values": [{"measurement": "Blood glucose, diabetic rats, Baseline", "setting": "[4]", "result": "16.3 ± 3", "unit": "mmol/L"}, {"measurement": "Blood glucose, diabetic rats, Average", "setting": "[4]; transdermal, equal to 20 mg/kg of NSAIAs once per day for 5 weeks, measured every 3 days, second to fifth week", "result": "8.7 ± 1", "unit": "mmol/L"}, {"measurement": "Blood glucose, type I diabetic mice, Baseline", "setting": "[5]", "result": "24.3 ± 3", "unit": "mmol/L"}, {"measurement": "Blood glucose, type I diabetic mice, Average", "setting": "[5]", "result": "8.7 ± 1", "unit": "mmol/L"}, {"measurement": "Histology of lung tissue and vascular walls after clot injection", "setting": "Chinese White rabbits [6]", "result": "both lung tissue and vascular walls were normal"}, {"measurement": "Triglycerides, Average", "setting": "[7]; end of fifth week, transdermal, equal to 20 mg/kg of NSAIAs once per day", "result": "2.9 ± 0.2", "unit": "mmol/L"}, {"measurement": "Blood glucose, normal rats, Baseline", "setting": "normal rats", "result": "7.2 ± 1", "unit": "mmol/L"}]}, {"molecule": "CN(C)CCCC(=O)O[C@H]1CC[C@H]2[C@@H]3CCC4=CC(=O)CC[C@]4(C)[C@H]3CC[C@]12C.Cl", "note": "[TSBH, testosteronyl-4-dimethylaminobutyrate.HCl]", "values": [{"measurement": "Diffusion through human skin, times faster than the drug (TS) itself", "setting": "[9]", "result": "~60", "unit": "times"}]}, {"molecule": "CC(=O)O.CCN(CC)CCOC(=O)COC(=O)Cc1c(C)n(C(=O)c2ccc(Cl)cc2)c2ccc(OC)cc12", "note": "[P-20]", "values": [{"measurement": "Psoriasis-like lesions", "setting": "Chinese White rabbits [1]", "result": "the lesions were resolved"}]}, {"molecule": "CC(=O)O.O=C(Cc1ccccc1Nc1c(Cl)cccc1Cl)OCCCN1CCCCC1", "note": "[P-2, 1-piperidinepropyl 2[(2,6-dichlorophenyl)amino]benzene acetate.AcOH]", "values": [{"measurement": "Brain level of prodrug or metabolite", "setting": "[8]; [10]", "result": "25 ± 6", "unit": "µg/g"}, {"measurement": "Kidney level of prodrug or metabolite", "setting": "[8]; [10]", "result": "20 ± 6", "unit": "µg/g"}, {"measurement": "Liver level of prodrug or metabolite", "setting": "[8]; [10]", "result": "22 ± 8", "unit": "µg/g"}, {"measurement": "Plasma level of prodrug or metabolite", "setting": "[8]; [10]", "result": "40 ± 10", "unit": "µg/mL"}, {"measurement": "Weight of nude mice", "setting": "[2]", "result": "22 ± 2"}, {"measurement": "Weight of nude mice", "setting": "[3]", "result": "22 ± 2"}]}]}
